Converted amounts (≈) assume the structure as drawn.
Columns and labels:
Assay type in all cases: cell-based
[1] = test system: A2058 (human metastatic melanoma); experiment: MTS cell proliferation/viability assay; conditions: 72 h
Procedure: (§1) The human cancer cell line HCT116 (human colorectal adenocarcinoma), HeLa (human cervical adenocarcinoma), Jurkat (human leukemic T cell lymphoma), and MDA-MB-231 (human mammary gland adenocarcinoma, triple-negative) were cultured in RPMI 1640 medium (Biosera, Kansas City, MO, USA). MCF-7 (human breast adenocarcinoma), A2058 (human metastatic melanoma), PANC-1 (human pancreatic adenocarcinoma), and NIH 3T3 (murine fibroblasts) cell lines were maintained in a growth medium consisting of high glucose Dulbecco’s Modified Eagle Medium with sodium pyruvate (Biosera, Kansas City, MO, USA). MCF-10A cell line (human mammary gland epithelial cells) was maintained in a growth medium consisting of high glucose DMEM F12 Medium (Biosera, Kansas City, MO, USA) + Suppl. (insulin, EGF-[…], HC-hydrocortisone, choleratoxin all Sigma, Steinheim, Germany). The growth medium was supplemented with a 10% fetal bovine serum, penicillin (100 IU/mL), and streptomycin (100 μg/mL) (all Invitrogen, Carlsbad, CA, USA), and cells were maintained in an atmosphere containing 5% CO2 in humidified air at 37 °C. Cell viability, estimated by trypan exclusion, was greater than 95% before each experiment.
(§2) The metabolic activity colorimetric assay (MTS) was used to determine the effects of CA (c = 10–300 µM) and compounds CAP 6, CAP 8, CAP 10, and CAP 12 (c = 1–100 µM) on the metabolic activity of several cell lines. After 72 h of incubation, 10 µL of MTS (Promega, Madison, WI, USA) was added to each well according to the CellTiter 96® AQueous One Solution Cell Proliferation Assay protocol. After a minimum of 1 h incubation, the absorbance was measured at 490 nm using the automated Cytation^TM 3 Cell Imaging Multi-Mode Reader (Biotek, Winooski, VT, USA). The absorbance of the control wells was taken as 1.0 (100%), and the results were expressed as a fold of the control. All experiments were performed in triplicate. Ideal predictive IC50 values were calculated from MTS analyses-based concentration concentration-dependent trends.

[2] = test system: HCT116 (human colorectal adenocarcinoma); experiment: MTS cell proliferation/viability assay; conditions: HCT-116, 72 h
Procedure: as §1, §2

[3] = test system: Jurkat (human leukemic T cell lymphoma); experiment: MTS cell proliferation/viability assay; conditions: 72 h
Procedure: as §1, §2

[4] = test system: MCF-7 (human breast adenocarcinoma); experiment: MTS cell proliferation/viability assay; conditions: MCF7, MCF-7, MTS, 72 h
Procedure: as §1, §2

[5] = test system: PANC-1 (human pancreatic adenocarcinoma); experiment: MTS cell proliferation/viability assay; conditions: PANC-1, MTS, 72 h
Procedure: as §1, §2

[6] = test system: MCF-10A cell line (human mammary gland epithelial cells); experiment: MTS cell proliferation/viability assay, control cells; conditions: MCF-10A control cells, 72 h
Procedure: as §1, §2

[7] = test system: NIH 3T3 (murine fibroblasts); experiment: as above; conditions: Mus musculus, NIH3T3, NIH 3T3 control cells, 72 h
Procedure: as §1, §2

tested cancer cell lines = experiment: MTS assay, span over the tested cell lines; conditions: Homo sapiens, 72 h
Procedure: as §1, §2

[8] = test system: Enterococcus faecalis CCM 4224; experiment: Broth microdilution MIC and MBC; conditions: for MIC: CCM4224, E. faecalis CCM 4224; for MBC: CCM4224, E. faecalis CCM 4224, inactivating 99.9% of inoculum
Procedure: (§3) The antimicrobial activity of caffeic acid and its semi-synthetic derivates was tested against Gram-positive (Staphylococcus aureus CCM 4750, methicillin-resistant; Staphylococcus aureus CCM 4223, methicillin-susceptible; Enterococcus faecalis CCM 4224) and Gram-negative bacteria (Pseudomonas aeruginosa CCM 3955; Escherichia coli CCM 3954; Klebsiella pneumoniae CCM 4415; Proteus mirabilis CCM 7188), and one strain of a yeast Candida albicans (CCM 8267). Microbial strains were purchased from the Czech Collection of Microorganisms, Brno, Czech Republic, and preserved in aliquots in cryoprotective media at −20 °C until the testing. Revival of cryoprotected bacteria took place by overnight cultivation on blood agar and an additional passage on blood agar. Minimal inhibitory concentrations (MIC) against bacteria were detected by broth microdilution test in sterile 96-well U-shaped microtiter plates (Roll s.a.s., Piove di Sacco, Italy) according to the EUCAST recommendations. The test was performed in 100 μL volumes in microtiter plate wells with a final bacterial concentration of 5 × 10^5 CFU·mL^−1. Antifungal activity testing was performed according to the EUCAST-recommended method for the determination of broth dilution minimum inhibitory concentrations of antifungal agents for yeasts, with some modifications. The final yeast concentration in the test wells was 10^4 CFU·mL^−1. The minimal bactericidal/fungicidal concentrations (MBC/MFC) were detected by point-inoculation of 5 μL aliquots from test wells without visible growth on solid agar media free of antimicrobials. Mueller–Hinton broth and agar were used for bacteria, and Sabouraud dextrose broth and agar for fungi (OXOID, Basingstoke, Hampshire, UK). The tested agents were dissolved in 50% ethanol, and serial dilutions were prepared in the test medium to obtain final concentrations ranging from 5000 to 5 μg·mL^−1, which corresponds to 27,753—54 μM for caffeic acid, 7251—14 μM for CAP 6, 6967—14 μM for CAP 8, 6705—13 μM for CAP 10 and 6462—13 μM for CAP 12. Wells with media free of bacteria served as sterility control and wells with bacteria without antimicrobial agents were used as growth control. The MIC was determined to be the lowest concentration of the antimicrobial agent inhibiting the growth of the tested microorganism, and the MBC/MFC was determined to be the lowest concentration, inactivating 99.9% of microbial inoculum. All tests were performed in three independent runs to exclude possible excessive values due to permissible measurement error.

[9] = test system: Escherichia coli CCM 3954; experiment: Broth microdilution MIC and MBC; conditions: for MIC: CCM3954, E. coli CCM 3954; for MBC: CCM3954, E. coli CCM 3954, inactivating 99.9% of inoculum
Procedure: as §3

[10] = test system: Klebsiella pneumoniae CCM 4415; experiment: Broth microdilution MIC and MBC; conditions: for MIC: CCM4415, K. pneumoniae CCM 4415; for MBC: CCM4415, K. pneumoniae CCM 4415, inactivating 99.9% of inoculum
Procedure: as §3

[11] = test system: Proteus mirabilis CCM 7188; experiment: Broth microdilution MIC and MBC; conditions: for MIC: CCM7188, P. mirabilis CCM 7188; for MBC: CCM7188, P. mirabilis CCM 7188, inactivating 99.9% of inoculum
Procedure: as §3

[12] = test system: Pseudomonas aeruginosa CCM 3955; experiment: Broth microdilution MIC and MBC; conditions: for MIC / MBC: Pseudomonas aeruginosa, CCM3955, P. aeruginosa CCM 3955; for MBC: inactivating 99.9% of inoculum
Procedure: as §3

S. aureus (MS) CCM 4223 = experiment: Broth microdilution MIC and MBC; conditions: Staphylococcus aureus, CCM4223, S. aureus methicillin-susceptible CCM 4223; for MBC: inactivating 99.9% of inoculum
Procedure: as §3

[13] = test system: Staphylococcus aureus (MR) CCM 4750; experiment: Broth microdilution MIC and MBC; conditions: for MIC: CCM4750, S. aureus methicillin-resistant CCM 4750; for MBC: CCM4750, S. aureus methicillin-resistant CCM 4750, inactivating 99.9% of inoculum
Procedure: as §3

Row | Compound | IC50 [1] [µM] | IC50 [2] [µM] | IC50 [4] [µM] | IC50 [5] [µM] | IC50 (tested cancer cell lines) [µM] | MIC [8] [µM] | MIC [9] [µM] | MIC [10] [µM] | MIC [11] [µM] | MIC [12] [µM] | MIC (S. aureus (MS) CCM 4223) [µM] | MIC [13] [µM] | IC50 [6] [µM] | IC50 [7] [µM] | MBC [8] [µM] | MBC [9] [µM] | MBC [10] [µM] | MBC [11] [µM] | MBC [12] [µM] | MBC (S. aureus (MS) CCM 4223) [µM] | also measured
1 | CC(=O)Oc1ccc(/C=C/C(=O)OCCCCCCCCCC[P+](c2ccccc2)(c2ccccc2)c2ccccc2)cc1OC(C)=O [CAP 10, P,P,P-triphenyl-10-{(2E)-3-[3,4-(diacetyloxy)penyl]prop-2-enoyloxy}decane-1-phosphanium bromide] | 9 ± 0.5 | 9.2 ± 0.3 | 9.5 ± 0.2 | 91.2 ± 2.6 | 0.9 to 9.5 | 26 | 419 | 105 | 210 | 838 | 13 | 13 | 31.1 ± 2.3 | 28 ± 1.3 | 26 | 419 | 105 | 419 | 676 | 13 | MBC [13]: 26 µM
2 | CC(=O)Oc1ccc(/C=C/C(=O)OCCCCCCCCCCCC[P+](c2ccccc2)(c2ccccc2)c2ccccc2)cc1OC(C)=O [CAP 12, P,P,P-triphenyl-12-{(2E)-3-[3,4-(diacetyloxy)penyl]prop-2-enoyloxy}dodecane-1-phosphanium bromide] | 9 ± 0.5 | 8.3 ± 0.6 | 4.9 ± 0.7 | > 100 | 0.9 to 9.5 | 25 | 808 | 404 | 404 | 404 | 50 | 25 | 33.7 ± 1.5 | 32.5 ± 0.9 | 25 | 808 | 404 | 404 | 808 | 50 | MBC [13]: 25 µM
3 | O=C(O)C=Cc1ccc(O)c(O)c1 [CA, 3-(3,4-dihydroxyphenyl)-2-propenoic acid, reference compound] | > 300 | > 300 | > 300 | > 300 | > 300 | 13900 (≈ 2500 µg/mL) | 6940 (≈ 1250 µg/mL) | 6940 (≈ 1250 µg/mL) | 6940 (≈ 1250 µg/mL) | 3470 (≈ 625 µg/mL) | 6940 (≈ 1250 µg/mL) | 6940 (≈ 1250 µg/mL) | > 300 | > 300 | 27800 (≈ 5000 µg/mL) | 13900 (≈ 2500 µg/mL) | 6940 (≈ 1250 µg/mL) | 6940 (≈ 1250 µg/mL) | 3470 (≈ 625 µg/mL) | 13900 (≈ 2500 µg/mL) | IC50 [3]: > 300 µM; MIC/MBC ([12]; P. aeruginosa, corresponding to the μM value): 625 mg/L (≈ 3.47 mM); MBC [13]: 13900 µM (≈ 2500 µg/mL)

Second part, led by results:

Row | IC50 [1] [µM] | IC50 [2] [µM] | IC50 [4] [µM] | IC50 [5] [µM] | IC50 (tested cancer cell lines) [µM] | MIC [8] [µM] | MIC [9] [µM] | MIC [10] [µM] | MIC [11] [µM] | MIC [12] [µM] | MIC (S. aureus (MS) CCM 4223) [µM] | MIC [13] [µM] | Compound | IC50 [6] [µM] | IC50 [7] [µM] | MBC [8] [µM] | MBC [9] [µM] | MBC [10] [µM] | MBC [11] [µM] | MBC [12] [µM] | MBC (S. aureus (MS) CCM 4223) [µM] | also measured
4 | 30.5 ± 1.5 | 31 ± 0.4 | 44.5 ± 0.1 | 98.8 ± 2.4 | 30.5 to 44.5 | 57 | 227 | 28 | 453 | 453 | 14 | 14 | CC(=O)Oc1ccc(/C=C/C(=O)OCCCCCC[P+](c2ccccc2)(c2ccccc2)c2ccccc2)cc1OC(C)=O [CAP 6, P,P,P-triphenyl-6-{(2E)-3-[3,4-(diacetyloxy)penyl]prop-2-enoyloxy}hexane-1-phosphanium bromide] | 53.7 ± 0.2 | 44.4 ± 2.6 | 57 | 227 | 28 | 453 | 453 | 14 | IC50 [3]: 8.5 ± 0.2 µM; MBC [13]: 14 µM
5 | 9.4 ± 0.3 | 8.3 ± 0.6 | 48.7 ± 0.1 | > 100 | 4.8 to 9.4 | 27 | 435 | 27 | 218 | 871 | 14 | 27 | CC(=O)Oc1ccc(/C=C/C(=O)OCCCCCCCC[P+](c2ccccc2)(c2ccccc2)c2ccccc2)cc1OC(C)=O [CAP 8, P,P,P-triphenyl-8-{(2E)-3-[3,4-(diacetyloxy)penyl]prop-2-enoyloxy}okctane-1-phosphanium bromide] | 42.3 ± 1.1 | 38.2 ± 1.8 | 27 | 435 | 27 | 435 | 871 | 14 | IC50 [3]: 6.9 ± 0.3 µM; MBC [13]: 27 µM

From paper PMC10817097, “Caffeic Acid Phosphanium Derivatives: Potential Selective Antitumor, Antimicrobial and Antiprotozoal Agents” (International Journal of Molecular Sciences, 2024)
